In patent publication US6054435A, “6-O-substituted macrolides having antibacterial activity” (priority 1999, dated 2000):
≈ marks a conversion by molar mass, not a printed value.

Key:
Experiment in all cases: in vitro antibacterial activity (MIC), agar dilution
Assay type in all cases: cell-based
[1] = tested on: Haemophilis Influenzae DILL AMP R; settings: organism code WW; BHI agar, 35-37° C., 20 to 24 hours; unit assumed
How it was run: (§1)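 Test compound serially diluted in Brain Heart Infusion agar across twelve plates; inocula of 1:100 dilution (1:10 for slow growers such as Streptococcus) applied by Steers replicator. MIC taken visually as lowest concentration giving no growth, slight haze or sparse isolated colonies versus drug-free growth control.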

[2] = tested on: Streptococcus Pneumonia 5649; settings: organism code ZZA; BHI agar, 35-37° C., 20 to 24 hours; unit assumed
How it was run: as §1

[3] = tested on: Streptococcus agalactiae CMX 508; settings: organism code KK; BHI agar, 35-37° C., 20 to 24 hours; unit assumed
How it was run: as §1

Escherichia coli DC-2 = settings: organism code SS; BHI agar, 35-37° C., 20 to 24 hours; unit assumed
How it was run: as §1

Candida albicans CCH 442 = settings: organism code TT; BHI agar, 35-37° C., 20 to 24 hours; unit assumed
How it was run: as §1

[4] = tested on: Staphylococcus epidermidis 3519; settings: organism code HH; BHI agar, 35-37° C., 20 to 24 hours; unit assumed
How it was run: as §1

[5] = tested on: Enterococcus faecium ATCC 8043; settings: organism code II; BHI agar, 35-37° C., 20 to 24 hours; unit assumed
How it was run: as §1

[6] = tested on: Streptococcus Pneumonia GYR 1171; settings: organism code YY; BHI agar, 35-37° C., 20 to 24 hours; unit assumed
How it was run: as §1

[7] = tested on: Staphylococcus aureus ATCC 6538P; settings: organism code AA; BHI agar, 35-37° C., 20 to 24 hours; unit assumed
How it was run: as §1

Escherichia coli JUHL = settings: organism code QQ; BHI agar, 35-37° C., 20 to 24 hours; unit assumed
How it was run: as §1

[8] = tested on: Streptococcus Pneumonia 5979; settings: organism code ZZ; BHI agar, 35-37° C., 20 to 24 hours; unit assumed
How it was run: as §1

[9] = tested on: Staphylococcus aureus NCTC10649M; settings: organism code EE; BHI agar, 35-37° C., 20 to 24 hours; unit assumed
How it was run: as §1

[10] = tested on: Streptococcus pyogenes PIU 2548; settings: organism code NN; BHI agar, 35-37° C., 20 to 24 hours; unit assumed
How it was run: as §1

[11] = tested on: Streptococcus pyogenes 930; settings: organism code MM; BHI agar, 35-37° C., 20 to 24 hours; unit assumed
How it was run: as §1

[12] = tested on: Micrococcus luteus ATCC 4698; settings: organism code PP; BHI agar, 35-37° C., 20 to 24 hours; unit assumed
How it was run: as §1

[13] = tested on: Staphylococcus aureus CMX 642A; settings: organism code DD; BHI agar, 35-37° C., 20 to 24 hours; unit assumed
How it was run: as §1

[14] = tested on: Staphylococcus aureus 1775; settings: organism code GG; BHI agar, 35-37° C., 20 to 24 hours; unit assumed
How it was run: as §1

[15] = tested on: Staphylococcus aureus CMX 553; settings: organism code FF; BHI agar, 35-37° C., 20 to 24 hours; unit assumed
How it was run: as §1

[16] = tested on: Micrococcus luteus ATCC 9341; settings: organism code OO; BHI agar, 35-37° C., 20 to 24 hours; unit assumed
How it was run: as §1

[17] = tested on: Streptococcus Pneumonia ATCC6303; settings: organism code XX; BHI agar, 35-37° C., 20 to 24 hours; unit assumed
How it was run: as §1

[18] = tested on: Mycobacterium smegmatis ATCC 114; settings: organism code UU; BHI agar, 35-37° C., 20 to 24 hours; unit assumed
How it was run: as §1

[19] = tested on: Staphylococcus aureus A5177; settings: organism code BB; BHI agar, 35-37° C., 20 to 24 hours; unit assumed
How it was run: as §1

[20] = tested on: Staphylococcus aureus A-5278; settings: organism code CC; BHI agar, 35-37° C., 20 to 24 hours; unit assumed
How it was run: as §1

Escherichia coli SS = settings: organism code RR; BHI agar, 35-37° C., 20 to 24 hours; unit assumed
How it was run: as §1

[21] = tested on: Nocardia Asteroides ATCC9970; settings: organism code VV; BHI agar, 35-37° C., 20 to 24 hours; unit assumed
How it was run: as §1

[22] = tested on: Streptococcus bovis A-5169; settings: organism code JJ; BHI agar, 35-37° C., 20 to 24 hours; unit assumed
How it was run: as §1

[23] = tested on: Streptococcus pyogenes EES61; settings: organism code LL; BHI agar, 35-37° C., 20 to 24 hours; unit assumed
How it was run: as §1

CC[C@H]1OC(=O)[C@H](C)C(=O)[C@H](C)[C@@H](O[C@@H]2O[C@H](C)C[C@H](N(C)C)[C@H]2O)[C@](C)(OC/C=C/c2cncc(-c3ncccn3)c2)C[C@@H](C)C(=O)[C@H](C)[C@H]2NC(=O)O[C@@]21C [Example 46]
MIC [1]: 4 µg/mL (≈ 5.04 µM)
MIC [2]: 0.5 µg/mL (≈ 0.63 µM)
MIC [3]: 0.02 µg/mL (≈ 0.0252 µM)
MIC (Escherichia coli DC-2): 100 µg/mL (≈ 126 µM)
MIC (Candida albicans CCH 442): > 100 µg/mL
MIC [4]: 0.1 µg/mL (≈ 0.126 µM)
MIC [5]: 0.05 µg/mL (≈ 0.063 µM)
MIC [6]: 0.03 µg/mL (≈ 0.0378 µM)
MIC [7]: 0.1 µg/mL (≈ 0.126 µM)
MIC (Escherichia coli JUHL): 50 µg/mL (≈ 63 µM)
MIC [8]: 128 µg/mL (≈ 161 µM)
MIC [9]: 0.2 µg/mL (≈ 0.252 µM)
MIC [10]: 0.2 µg/mL (≈ 0.252 µM)
MIC [11]: 12.5 µg/mL (≈ 15.7 µM)
MIC [12]: 0.2 µg/mL (≈ 0.252 µM)
MIC [13]: 0.2 µg/mL (≈ 0.252 µM)
MIC [14]: > 100 µg/mL
MIC [15]: 0.2 µg/mL (≈ 0.252 µM)
MIC [16]: 0.05 µg/mL (≈ 0.063 µM)
MIC [17]: 0.03 µg/mL (≈ 0.0378 µM)
MIC [18]: 6.2 µg/mL (≈ 7.81 µM)
MIC [19]: 0.2 µg/mL (≈ 0.252 µM)
MIC [20]: > 100 µg/mL
MIC (Escherichia coli SS): 0.39 µg/mL (≈ 0.491 µM)
MIC [21]: 0.05 µg/mL (≈ 0.063 µM)
MIC [22]: 0.01 µg/mL (≈ 0.0126 µM)
MIC [23]: 0.02 µg/mL (≈ 0.0252 µM)

CC[C@H]1OC(=O)[C@H](C)C(=O)[C@H](C)[C@@H](O[C@@H]2O[C@H](C)C[C@H](N(C)C)[C@H]2O)[C@](C)(OC/C=C/c2ccc(-c3ccccn3)s2)C[C@@H](C)C(=O)[C@H](C)[C@H]2NC(=O)O[C@@]21C [Example 75]
MIC [1]: 2 µg/mL (≈ 2.51 µM)
MIC [2]: 0.125 µg/mL (≈ 0.157 µM)
MIC [3]: 0.02 µg/mL (≈ 0.0251 µM)
MIC (Escherichia coli DC-2): 25 µg/mL (≈ 31.3 µM)
MIC (Candida albicans CCH 442): > 100 µg/mL
MIC [4]: 0.05 µg/mL (≈ 0.0627 µM)
MIC [5]: 0.05 µg/mL (≈ 0.0627 µM)
MIC [6]: ≤ 0.004 µg/mL
MIC [7]: 0.05 µg/mL (≈ 0.0627 µM)
MIC (Escherichia coli JUHL): 50 µg/mL (≈ 62.7 µM)
MIC [8]: 1 µg/mL (≈ 1.25 µM)
MIC [9]: 0.05 µg/mL (≈ 0.0627 µM)
MIC [10]: 0.1 µg/mL (≈ 0.125 µM)
MIC [11]: 12.5 µg/mL (≈ 15.7 µM)
MIC [12]: 0.1 µg/mL (≈ 0.125 µM)
MIC [13]: 0.05 µg/mL (≈ 0.0627 µM)
MIC [14]: > 100 µg/mL
MIC [15]: 0.05 µg/mL (≈ 0.0627 µM)
MIC [16]: 0.02 µg/mL (≈ 0.0251 µM)
MIC [17]: ≤ 0.004 µg/mL
MIC [18]: 1.56 µg/mL (≈ 1.95 µM)
MIC [19]: 0.05 µg/mL (≈ 0.0627 µM)
MIC [20]: > 100 µg/mL
MIC (Escherichia coli SS): 0.39 µg/mL (≈ 0.489 µM)
MIC [21]: 0.02 µg/mL (≈ 0.0251 µM)
MIC [22]: 0.01 µg/mL (≈ 0.0125 µM)
MIC [23]: 0.02 µg/mL (≈ 0.0251 µM)

CC[C@H]1OC(=O)[C@H](C)C(=O)[C@H](C)[C@@H](O[C@@H]2O[C@H](C)C[C@H](N(C)C)[C@H]2O)[C@](C)(OC/C=C/c2ccc(-c3ccc(Cl)c(Cl)c3)s2)C[C@@H](C)C(=O)[C@H](C)[C@H]2NC(=O)O[C@@]21C [Example 71]
MIC [1]: 16 µg/mL (≈ 18.5 µM)
MIC [2]: 1 µg/mL (≈ 1.15 µM)
MIC [3]: 0.1 µg/mL (≈ 0.115 µM)
MIC (Escherichia coli DC-2): > 100 µg/mL
MIC (Candida albicans CCH 442): > 100 µg/mL
MIC [4]: 0.39 µg/mL (≈ 0.45 µM)
MIC [5]: 0.39 µg/mL (≈ 0.45 µM)
MIC [6]: 0.125 µg/mL (≈ 0.144 µM)
MIC [7]: 0.39 µg/mL (≈ 0.45 µM)
MIC (Escherichia coli JUHL): > 100 µg/mL
MIC [8]: 4 µg/mL (≈ 4.62 µM)
MIC [9]: 0.39 µg/mL (≈ 0.45 µM)
MIC [10]: 0.39 µg/mL (≈ 0.45 µM)
MIC [11]: 3.1 µg/mL (≈ 3.58 µM)
MIC [12]: 0.39 µg/mL (≈ 0.45 µM)
MIC [13]: 0.39 µg/mL (≈ 0.45 µM)
MIC [14]: 12.5 µg/mL (≈ 14.4 µM)
MIC [15]: 0.39 µg/mL (≈ 0.45 µM)
MIC [16]: 0.39 µg/mL (≈ 0.45 µM)
MIC [17]: 0.125 µg/mL (≈ 0.144 µM)
MIC [18]: 0.39 µg/mL (≈ 0.45 µM)
MIC [19]: 0.39 µg/mL (≈ 0.45 µM)
MIC [20]: 12.5 µg/mL (≈ 14.4 µM)
MIC (Escherichia coli SS): 3.1 µg/mL (≈ 3.58 µM)
MIC [21]: 0.39 µg/mL (≈ 0.45 µM)
MIC [22]: 0.05 µg/mL (≈ 0.0577 µM)
MIC [23]: 0.1 µg/mL (≈ 0.115 µM)
